Results as given in patent publication US9730448B2, “Tetrazolinone compound and use of same” (Sumitomo Chemical Company, Limited, priority 2013, dated 2017).

Tested on: cucumber powdery mildew fungus (Sphaerotheca fuliginea, a QoI-resistant strain, cytochrome b position 143 glycine to alanine)
Experiment: Test Example 6 and Comparative Test Example: control of cucumber powdery mildew (QoI-resistant strain), foliar spray on cucumber
Type: in vivo
Conditions: 500 ppm water dilution sprayed on cucumber (SAGAMI HANJIRO); inoculated after air-drying; investigated after 8 days in greenhouse

Cc1cc(-c2cccs2)ccc1OCc1ccccc1-n1nnn(C)c1=O [1-{[2-[2-methyl-4-(thiophen-2-yl)phenoxy]methyl]phenyl}-4-methyl-1,4-dihydrotetrazol-5-one]
area of lesion spots on the treated plant relative to that on an untreated plant: ≥ 70%
